Experimental data from the CheMixHub drug solubility set.

Assay: xn = mol fraction of the nth substance listed, in the solute-free solvent

O=c1ccc2ccccc2o1 + CO + O
solubility (g/100 g solution)
Settings | 278.15 K | 283.15 K | 288.15 K | 293.15 K | 298.15 K | 303.15 K | 308.15 K | 313.15 K | 318.15 K
x2 = 0.1 | 0.0349 | 0.0594 | 0.105 | 0.171 | 0.28 | 0.435 | 0.655 | 0.988 | 1.41
x2 = 0.2 | 0.147 | 0.236 | 0.385 | 0.598 | 0.922 | 1.43 | 2.06 | 3.08 | 4.3
x2 = 0.3 | 0.262 | 0.479 | 0.869 | 1.6 | 2.58 | 4.47 | 7.35 | 12.8 | 19.9
x2 = 0.4 | 0.573 | 1.11 | 1.99 | 3.53 | 6.25 | 10.8 | 17.7 | 28.7 | 41.9
x2 = 0.5 | 1.13 | 1.96 | 3.86 | 6.41 | 11.2 | 18.6 | 28.4 | 43.2 | 59.6
x2 = 0.6 | 1.82 | 3.3 | 5.98 | 9.8 | 16 | 24.8 | 38.3 | 52.1 | 67
x2 = 0.7 | 2.64 | 4.53 | 7.8 | 12.7 | 20.2 | 30.4 | 42.9 | 59.2 | 73.3
x2 = 0.8 | 3.28 | 5.51 | 9.32 | 15.7 | 22.1 | 34.3 | 46.8 | 62.9 | 77.3
x2 = 0.9 | 4.13 | 6.53 | 11.1 | 17.5 | 25.5 | 36.7 | 50.3 | 65.3 | 79.6

COC(=O)C1=C(C)NC(C)=C(C(=O)OCC(C)C)C1c1ccccc1[N+](=O)[O-] (centres undefined) + CCO + O
solubility (g/100 g solution)
Settings | 278.15 K | 283.15 K | 288.15 K | 293.15 K | 298.15 K | 303.15 K | 308.15 K | 313.15 K | 318.15 K
x2 = 0.08908 | 0.379 | 0.503 | 0.648 | 0.817 | 0.987 | 1.2 | 1.42 | 1.68 | 1.99
x2 = 0.2068 | 1.23 | 1.53 | 1.87 | 2.25 | 2.73 | 3.28 | 3.94 | 4.74 | 5.64
x2 = 0.3698 | 1.72 | 2.14 | 2.63 | 3.16 | 3.79 | 4.51 | 5.31 | 6.22 | 7.38
x2 = 0.6101 | 2.18 | 2.75 | 3.38 | 4.12 | 5 | 6 | 7.01 | 8.24 | 9.61

COC(=O)C1=C(C)NC(C)=C(C(=O)OCC(C)C)C1c1ccccc1[N+](=O)[O-] (centres undefined) + CC(C)O + O
solubility (g/100 g solution)
Settings | 278.15 K | 283.15 K | 288.15 K | 293.15 K | 298.15 K | 303.15 K | 308.15 K | 313.15 K | 318.15 K
x2 = 0.06974 | 0.651 | 0.819 | 1.02 | 1.25 | 1.49 | 1.76 | 2.04 | 2.35 | 2.71
x2 = 0.1666 | 1.78 | 2.22 | 2.67 | 3.18 | 3.8 | 4.49 | 5.28 | 6.22 | 7.31
x2 = 0.3103 | 2.4 | 2.84 | 3.46 | 4 | 4.73 | 5.54 | 6.37 | 7.36 | 8.44
x2 = 0.5454 | 3.18 | 3.82 | 4.5 | 5.27 | 6.2 | 7.21 | 8.34 | 9.68 | 11.1

O=C(CC(=O)c1ccccc1)c1ccccc1 + CC(C)O + O
solubility (g/100 g solution)
Settings | 278.15 K | 283.15 K | 288.15 K | 293.15 K | 298.15 K | 303.15 K | 308.15 K | 313.15 K | 318.15 K
x2 = 0.2 | 0.0987 | 0.114 | 0.14 | 0.185 | 0.222 | 0.277 | 0.338 | 0.422 | 0.528
x2 = 0.4 | 0.264 | 0.353 | 0.459 | 0.618 | 0.711 | 1.05 | 1.26 | 1.73 | 4.77
x2 = 0.6 | 0.61 | 0.936 | 1.23 | 1.34 | 1.47 | 1.91 | 2.36 | 3.27 | 4.94
x2 = 0.8 | 0.977 | 1.43 | 1.48 | 2.1 | 2.32 | 2.93 | 3.69 | 4.5 | 7.02
